Read-outs that look alike come from different tables or passages of the source.
Tests used:
[1] = Pan et al., 2004; cited from earlier work
[2] = tested on: mouse brain vessel endothelial cells; assay: Tail vein injection of bacterial viruses in C57BL6 mice, immunostaining of brain sections; assay type: in vivo; conditions: 15 min and 2 h post injection, peptide expressed by bacterial viruses
Procedure: Double immunofluorescent staining of frozen sections of C57BL6 mouse brain, 2 h after mouse tail vein injection of control bacterial viruses (A-B) and bacterial viruses expressing a peptide (SEQ ID NO: 1) with affinity for hLDLR and mLDLR (C-D). Brain vessels are stained with anti-mouse IgG, in green (A-C); bacterial viruses are stained with anti-viral envelope protein antibody, in red (B-D).
Bacterial viruses expressing peptides with affinity for hLDLR (SEQ ID NO: 1 is described here for example) and control bacterial viruses (not expressing peptide with affinity for hLDLR) were injected into the tail veins of C57BL6 mice anaesthetised with halothane. After 15 min and 2 h post injection, the mice were sacrificed and perfused with 0.9% NaCl. Brains, livers and kidneys were frozen in isopentane and frozen sections were prepared for double immunohistochemical staining to visualise blood vessels with anti-mouse IgG and anti-viral envelope protein antibody to visualise bacterial viruses bound to endothelial cells in vivo.

hLDLR [3] = target: T1, hLDLR (Homo sapiens, UniProt P01130); assay: Immunocytochemistry: bacterial viruses on CHO-GFP (control) and CHO-hLDLR-GFP cell lines; assay type: binding; set-up: expressed in transfected cells; conditions: CHO cell line expressing GFP alone; peptide expressed by bacterial virus clone
From the text: CHO cell lines stably expressing A—GFP alone (green), and B—hLDLR-GFP (green), and immunostaining with an anti-viral envelope protein antibody of a clone of bacterial viruses expressing a peptide (SEQ ID NO: 1) with affinity for hLDLR (red dots). Cell nuclei are stained with Hoechst (blue, A1 and B1). GFP fluorescence is visible in green (A2 and B2), that of the staining of the viral envelope of the bacterial virus by the viral anti-protein antibody is visible in red (A3 and B3) and the superimposing of red and green stains is visible in yellow/orange (A4 and B4).
The bacterial virus clones identified following the binding of the peptides, which they express and which bind to hLDLR-GFP expressed by the stable CHO-hLDLR-GFP cell line, were brought together with LDLR cells and, after intensive washing, were detected with an antibody directed against the viral envelope protein of the bacterial virus followed by a second antibody coupled with Alexa 594 (FIG. 7).

hLDLR [4] = target: T1, hLDLR; assay: FACS: binding of bacterial viruses expressing peptides to human fibroblasts; set-up: endogenous in cells; host or cells: HUVEC (human umbilical vein endothelial cells), not genetically modified; conditions: peptide expressed by bacterial virus clone, vs control bacterial viruses
Procedure: Evaluation by FACS of the interaction between human fibroblasts and a clone of bacterial viruses expressing peptide SEQ ID NO: 12 with affinity for hLDLR, compared with control bacterial viruses not expressing peptides with affinity for this receptor.
(§1) Qualitative immunocytochemistry was supplemented with quantitative flow cytometry (FACS) with suspended cells (GFP cell line, CHO-hLDLR-GFP cell line, human fibroblasts, HUVEC). These cells were grown in culture medium, mechanically unbound and dissociated (without trypsin), centrifuged, resuspended and incubated in the presence of various bacterial virus clones and anti-LDLR antibody, for 20 min at 4° C. in order to avoid any process of endocytosis. After washings, the bacterial viruses bound to cells were visualised with anti-viral envelope protein antibody. FACS analyses were carried out with a FACSCanto system (Becton Dickinson) using BD FACSDiva software. The number of positive cells was standardised with 5,000 events for each test. The results were expressed in arbitrary units of fluorescence.
(§2) FIGS. 9, 10, 11 correspond to the results obtained for peptides SEQ ID NO: 11, SEQ ID NO: 12 and SEQ ID NO: 21 on cells of the CHO-hLDLR-GFP cell line (FIG. 9), human fibroblasts (FIG. 10) and HUVEC (FIG. 11).

[5] = In situ perfusion in mouse, transport across the blood-retinal barrier; assay type: in vivo; conditions: mouse, in vivo
From the text: (§3) This strategy of in situ brain perfusion normally carried out in the rat was adapted for mouse (Dagenais et al., 2000, J Cereb Blood Flow Metab., 20(2), 381-6) in order to broaden its application for evaluating the parameters of transport kinetics at the BBB and the blood-retinal barrier, in transgenic and KO mutant mice for the receptors, enzymes or transporters of active substances. It involves catheterisation of a carotid artery in anaesthetised OF 1 mice and ligature of some branches of this carotid artery (external, thyroidal, occipital) in order to specifically perfuse the internal carotid and pterygopalatine arteries, which are used to evaluate the uptake in the brain of the vectors and conjugates. The catheter makes it possible to replace general circulation by infusion with a well-controlled perfusate (bicarbonate buffer, plasma or blood) by passing by the carotid. Oxygenated Krebs bicarbonate buffer is first used to evaluate the capacities of the vectors and conjugates to gain access to the brain. After catheterisation of the carotid, endogenous blood flow is stopped by sectioning the ventricles of the heart in order to avoid the mixture of buffer with blood and elevation in blood pressure. The duration of the fixed flow-rate perfusion is monitored. The buffer perfusion can be extended up to 20 min, or up to 1 h in the presence of oxygen transporters (washed erythrocytes) for studies of receptor-mediated transport (RMT).
In addition, the Kin of these various peptides, across the blood-retinal barrier (BRB), were also determined. Kin of SEQ ID NO: 11=1.2±0.2×10^−4 ml/s/g Kin of SEQ ID NO: 48=2.4±0.3×10^−4 ml/s/g Kin of SEQ ID NO: 73=0.0±0.0×10^−4 ml/s/g Kin of SEQ ID NO: 72=11.5±3.3×10^−4 ml/s/g Kin of SEQ ID NO: 74=1.8±0.2×10^−4 ml/s/g

hLDLR [6] = target: T1, hLDLR; assay: FACS on HUVEC: competition between peptides expressed by bacterial viruses and natural ligand LDL; assay type: binding; set-up: endogenous in cells; host or cells: HUVEC (human umbilical vein endothelial cells), not genetically modified
From the text: Evaluation by FACS on HUVEC of competition between the peptides expressed by the bacterial viruses with affinity for LDLR and its natural ligand LDL.
I—Graph representing the percentage of shift of the fluorescence signal in zone Q2 of graphs A-H obtained by FACS. […] Adding LDL leads to an 85% loss of signal in Q2 in […], indicating competition between the bacterial virus corresponding to peptide sequence SEQ ID NO: 21 and LDL at the site where LDL binds to hLDLR. The equally strong signal in Q2 of the bacterial viruses that express peptide SEQ ID NO: 11 (shift greater than 70% compared to control bacterial viruses) is only slightly shifted (17%) by adding LDL.
First, it is shown that the binding rate of bacterial viruses expressing peptides with affinity for hLDLR (SEQ ID NO: 21 and SEQ ID NO: 11 are used here as examples) is proportional to the level of LDLR expression by HUVEC. FACS experiments carried out in the presence of LDL made it possible to show and quantify a strong shift (85%) of LDL by linear peptides (for example SEQ ID NO: 21), but a small shift (17%) by cyclic peptides (for example SEQ ID NO: 11).

hLDLR [7] = target: T1, hLDLR; assay: FACS: binding of bacterial viruses expressing peptides to CHO-hLDLR-GFP cells; set-up: expressed in transfected cells; conditions: peptide expressed by bacterial virus clone, vs control bacterial viruses, 20 min at 4° C.
Procedure: Evaluation by FACS of the interaction between CHO-hLDLR-GFP cells and a clone of bacterial viruses expressing peptide SEQ ID NO: 11 with affinity for hLDLR compared with control bacterial viruses not expressing peptides with affinity for this receptor.
as §1, §2

hLDLR [8] = target: T1, hLDLR; assay: FACS: binding of bacterial viruses expressing peptides to HUVEC; set-up: endogenous in cells; host or cells: HUVEC (human umbilical vein endothelial cells), not genetically modified
Procedure: Evaluation by FACS of the interaction between HUVEC and two clones of bacterial viruses expressing peptides, one cyclic (SEQ ID NO: 11), the other linear (SEQ ID NO: 21), with affinity for hLDLR, compared with control bacterial viruses not expressing peptides with affinity for this receptor.
as §1, §2

[9] = In situ brain perfusion in mouse, transport across the BBB; assay type: in vivo; conditions: mouse, in vivo
Procedure: The in situ brain perfusion technique (in adult male OF1 mouse) is used here to select the best vectors and to provide proof of their mechanism of action for their passage in the brain across the BBB.
Radioactive peptides with high specific radioactivity (SRA, up to 100 Ci/mmol) are prepared by a strategy of acylation of the N-term amine function by tritiated propionic (or propanoic) anhydride or tritiated N-propionyl-succinimide (NPS).
The tritiation reaction of peptide vectors SEQ ID NO: 11 and SEQ ID NO: 48 in the N-term position by propionylation is carried out in DMF (1 mg peptide in 100 μl to 450 μl according to solubility) by adding 0.1 equivalent of tritiated NPS for 5 min at room temperature, then 0.9 equivalent of cold NPS (non-tritiated) for 1 h, and then a new equivalent of cold NPS for 5 h. The reaction medium is then left at 4° C. overnight and purified the following day by HPLC. The SRA for each tritiated peptide is between 5 Ci/mmol and 10 Ci/mmol (theoretically on the order of 7.7 Ci/mmol). The total quantity of radioactivity prepared by synthesis is between 600 μCi and 950 μCi.
The techniques briefly summarised below were developed to study the distribution in the brain of active substances and, in particular, the role of the BBB and, more particularly, of LDLR in the penetration of these molecules in the brain. In situ brain perfusion techniques are among the most technically demanding and the most difficult to perform in the mouse. However, in situ brain perfusion (like in vitro models) enables total control of the composition of the artificial perfusate in order to maintain the cells and vascularisation of the brain under normal physiological and anatomical conditions within the animal, without the disrupting factor of systemic distribution.
as §3
The study of peptide vector SEQ ID NO: 11 made it possible to determine its brain transport or transfer coefficient (Kin). The duration of brain perfusion for these experiments is 5 min with a perfusate flow rate of 2 ml/min. Thus, the calculation of the Kin (volume of distribution over time of brain perfusion) of peptide vector SEQ ID NO: 11 gives a value of 3.5±0.2×10^−4 ml/s/g.

[10] = Demeule et al., 2008; cited from earlier work

T1 sequence (P01130 22-860): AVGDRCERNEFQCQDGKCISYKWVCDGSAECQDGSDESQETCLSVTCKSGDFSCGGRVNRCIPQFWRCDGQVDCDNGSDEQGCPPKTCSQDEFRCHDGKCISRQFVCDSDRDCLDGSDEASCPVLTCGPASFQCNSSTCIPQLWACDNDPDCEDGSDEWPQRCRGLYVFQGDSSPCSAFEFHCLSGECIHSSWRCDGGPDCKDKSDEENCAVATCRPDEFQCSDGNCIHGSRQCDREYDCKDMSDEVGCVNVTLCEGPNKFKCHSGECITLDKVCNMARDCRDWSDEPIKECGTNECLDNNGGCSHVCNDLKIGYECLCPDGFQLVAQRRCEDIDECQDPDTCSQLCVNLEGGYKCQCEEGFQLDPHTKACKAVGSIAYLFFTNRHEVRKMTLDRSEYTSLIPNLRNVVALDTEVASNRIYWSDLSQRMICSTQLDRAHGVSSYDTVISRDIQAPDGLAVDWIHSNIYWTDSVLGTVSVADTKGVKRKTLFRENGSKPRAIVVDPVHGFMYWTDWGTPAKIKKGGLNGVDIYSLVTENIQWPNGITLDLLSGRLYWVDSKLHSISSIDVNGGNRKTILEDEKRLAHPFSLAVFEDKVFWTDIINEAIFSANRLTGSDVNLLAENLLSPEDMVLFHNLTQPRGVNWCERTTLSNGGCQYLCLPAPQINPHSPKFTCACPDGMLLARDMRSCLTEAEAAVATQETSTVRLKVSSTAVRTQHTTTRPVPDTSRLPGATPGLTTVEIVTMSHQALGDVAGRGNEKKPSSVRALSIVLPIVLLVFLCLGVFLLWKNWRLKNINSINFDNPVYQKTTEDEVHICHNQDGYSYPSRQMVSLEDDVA

Question: Which Kin [1] does the source give for “RAP protein: RAP protein; literature Kin value” here?
Answer: 1e-05 mL/s/g

Question: Which results are given for HLDCMPRGCFRN [SEQ ID NO: 1]?
Answer: binding to brain vessel wall endothelial cells in vivo [2]: bind to vessel wall endothelial cells; binding of bacterial viruses to cells that do not express hLDLR (hLDLR [3]): do not bind

Question: For MTVMPTGLWNPLIPS [SEQ ID NO: 12], which “shift of the signal in Q2 (FACS)” value (hLDLR [4]) is on record?
Answer: significant shift

Question: For DSGLCMPRLRGCDPR [SEQ ID NO: 11], which “Kin across the blood-retinal barrier (BRB)” value [5] is on record?
Answer: 1.2±0.2 ×10^−4 ml/s/g

Question: And the “effect of LDL on binding of peptides expressed by bacterial viruses” value (hLDLR [6]; FACS, LDL added)?
Answer: No effect

Question: And the “loss/shift of signal in Q2 on adding LDL” value (hLDLR [6]; peptide expressed by bacterial viruses, in the presence of LDL)?
Answer: 17%

Question: What about the “shift of the signal in Q2 (FACS)” value (hLDLR [7]) of the same substance?
Answer: significant shift

Question: What about the “shift of the signal in Q2 (FACS)” value (hLDLR [8]; peptide expressed by bacterial virus clone, vs control bacterial viruses) of the same substance?
Answer: significant shift

Question: And the “percentage of shift of the fluorescence signal in zone Q2” value (hLDLR [8]; peptide expressed by bacterial viruses, without LDL)?
Answer: greater than 70%

Question: What about the “Kin (brain transport or transfer coefficient)” value [9] of the same substance?
Answer: 3.5±0.2 ×10^−4 ml/s/g

Question: Which Kin [10] does the source give for “transferrin: transferrin, ligand of TfR; literature Kin value” here?
Answer: 0.0003 mL/s/g

Source: patent US9328143B2, “Peptide derivatives and use thereof as carriers for molecules in the form of conjugates” (VECT-HORUS, priority 2008, dated 2016)
